Patent publication US20220242843A1, “PROCESS FOR PREPARING A COUMARIN-CAGED FORSKOLIN DERIVATIVE, FORSKOLIN DERIVATIVE AND USE OF SAID FORSKOLIN DERIVATIVE” (Forschungszentrum Juelich GmbH, priority 2019, published 2022)

Experiments:
[1] = test system: peripheral membrane adenylyl cyclases; assay: Validation on eukaryotic cell line expressing CNG channel and GCaMP3.0: Ca2+-dependent fluorescence as readout of intracellular cAMP increase after UV exposure; format: cell-based; conditions: 100 μM IBMX
Source text: The substance JCF 1 described according to embodiments of the invention was validated on eukaryotic cell cultures in which the increase in the intracellular cAMP concentration, which results from the binding of the biologically active forskolin carbamate 10 (FIG. 9) to peripheral membrane adenylyl cyclases which are endogenously present in the cells, using a fluorescence-based sensitive detection process.^14 In this regard, a cell line was used in which a cyclic-nucleotide-gated (CNG) ion channel is constitutively expressed. These channels are typically expressed in olfactory sensory neurons of the olfactory epithelium and open when the intracellular cAMP concentration increases. […] The inflow of Ca^2+ can be detected with Ca^2+-sensitive dyes or genetically encoded Ca^2+ indicators, such as GCaMP sensors, in a fluorescence reader or with a fluorescence microscope. […] The Ca^2+-dependent change in the fluorescence change can be detected and quantified with the aforementioned processes.
Cells of the cell line described were seeded in 96-well multi-well plates (MWP) and increased to a density of approximately 25,000. […] The basal fluorescence in the wells of 96-well MWP was then measured with a fluorescence reader. […] The basal fluorescence in the wells was then measured again before the entire 96-well MWP plate was exposed to light using a UV lamp device (FIG. 11, FIG. 12). […]

[2] = Photolysis of JCF 1 in MeOH under 368.8 nm irradiation, followed by mass spectrometry; format: physicochemical; conditions: 100 μM in MeOH; 368.8 nm±5 nm; approximately 12.5 mW/cm^2
Method: The photolysis of JCF 1 is carried out under controlled conditions in order to quantitatively detect the release of forskolin carbamate 10 as a function of the amount of light absorbed: 0.16 ml of a 100 μM solution of JCF 1 in MeOH is added to a quartz glass cuvette (width: 4 mm; depth (optical path): 10 mm->fill level 4 mm). The “Intensilight” light source (excitation lamp of a Nikon TI Eclipse fluorescence microscope) is used as the excitation source, the light of which is guided through a gel light guide (active diameter: 4 mm) and a narrowband bandpass filter (368.8 nm±5 nm) onto the liquid column in the cuvette. […]
The irradiated samples are then examined using mass spectrometry (mass spectrometer: MSQ Plus from ThermoScientific; ionization: ESI-interface with a cone voltage of 50 V, eluent: methanol, water, glacial acetic acid, /50, 50, 0.02/vol, vol, vol; flow rate 0.2 ml/min; direct injections of 20 μl of the respective irradiated samples via a Rheodyne injection valve (7725i)). The mass trace m/z 511 and the mass range m/z 807-811 are recorded. The integrals of the peaks of the chromatogram of the mass trace m/z 511 (see FIG. 10) are evaluated. With an exposure time of 320 seconds, no more signals can be detected in the mass range m/z 807-811 (starting compound), and therefore a complete conversion can be assumed after this time under the above-described conditions.

SMILES: C=C[C@@]1(C)CC(=O)[C@]2(O)[C@@]3(C)[C@@H](O)CCC(C)(C)[C@@H]3[C@H](OC(=O)NCCN(C)C(=O)OCc3cc(=O)oc4cc(O)c(Br)cc34)[C@H](OC(C)=O)[C@@]2(C)O1 [JCF 1, (3R,4aR,5S,6S,6aS,10S,10aR,10bS)-6-(((2-((((6-bromo-7-hydroxy-2-oxo-2H-chromen-4-yl)methoxy)carbonyl)(methyl)amino)ethyl)carbamoyl)oxy)-10,10b-dihydroxy-3,4a,7,7,10a-pentamethyl-1-oxo-3-vinyldodecahydro-1H-benzo[f]chromen-5-yl acetate]
- change in fluorescence relative to the values achieved by adding non-caged NKH 477 ([1]; 10 μM and 30 μM, after UV exposure): approximately 50%
- Ca2+-dependent fluorescence emission after UV exposure (release of forskolin carbamate 10) ([1]; cells loaded with 10 μM and 30 μM for 30 min in the dark, UV lamp exposure): significant increase
- exposure time after which no more signals of starting compound (m/z 807-811) can be detected; complete conversion assumed [2]: 320 s
